Laboratory results as given in article PMC9636434, “Discovery of small molecule agonists of the Relaxin Family Peptide Receptor 2” (Communications Biology, 2022).
“And” between values parts separate entries of the source, which are not always exact repeats. Equal entries are not always repeated.

Columns and labels:
mouse RXFP1 = biological target: T1, mouse RXFP1 (Mus musculus, UniProt Q6R6I7); assay: HTRF cAMP counter-screen in HEK293T cells expressing mouse RXFP1; assay type: cell-based; settings: for % Eff (cAMP): mouse RXFP1, experiments (1)-(3)
T1 construct: FLAG (N); expressed in transfected cells
T1 sequence (Q6R6I7 1-758): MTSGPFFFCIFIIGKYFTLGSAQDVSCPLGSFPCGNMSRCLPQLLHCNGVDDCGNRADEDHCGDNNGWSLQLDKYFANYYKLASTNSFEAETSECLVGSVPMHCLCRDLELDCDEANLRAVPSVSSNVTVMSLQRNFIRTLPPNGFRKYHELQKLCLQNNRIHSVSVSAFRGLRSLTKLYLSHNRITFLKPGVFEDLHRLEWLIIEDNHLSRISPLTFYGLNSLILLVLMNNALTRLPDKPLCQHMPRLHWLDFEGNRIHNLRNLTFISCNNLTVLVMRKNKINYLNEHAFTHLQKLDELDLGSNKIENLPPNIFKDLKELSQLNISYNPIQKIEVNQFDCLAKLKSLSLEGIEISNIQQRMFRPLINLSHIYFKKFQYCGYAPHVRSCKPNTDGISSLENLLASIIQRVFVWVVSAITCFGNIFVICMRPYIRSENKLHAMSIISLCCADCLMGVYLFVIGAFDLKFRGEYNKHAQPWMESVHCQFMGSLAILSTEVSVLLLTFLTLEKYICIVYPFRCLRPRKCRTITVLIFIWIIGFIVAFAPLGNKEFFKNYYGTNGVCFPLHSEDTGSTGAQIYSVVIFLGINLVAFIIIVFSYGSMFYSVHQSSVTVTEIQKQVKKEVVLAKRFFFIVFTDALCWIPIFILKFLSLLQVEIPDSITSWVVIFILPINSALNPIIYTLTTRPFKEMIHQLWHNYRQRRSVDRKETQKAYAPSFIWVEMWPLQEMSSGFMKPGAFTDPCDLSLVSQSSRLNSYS
Procedure: The HTRF Gs dynamic cAMP assay kit (CisBio, Bedford, MA) was used to measure intracellular cAMP accumulation in HEK293T cells (ATCC, Manassas, VA)[56]. […] The cell stock was verified mycoplasma free and authenticated by ATCC. Transient transfection was accomplished by treating cells in a 6-well plate with a mixture of 2 μg plasmid and 6 μL Lipofectamine 2000 (Invitrogen, Waltham, MA) per manufacturer’s protocol and incubating overnight. For cAMP measurement in 96-well format, HEK293T cells stably transfected with human RXFP2 (HEK-RXFP2), human RXFP1 (HEK-RXFP1), mouse Rxfp1 (HEK-Rxfp1) or transiently transfected with human RXFP1-RXFP2 chimeric receptors were seeded between 7500 and 30,000 cells per well, depending on cell line responsiveness, in serum-free DMEM medium and incubated overnight at 37 °C, 5% CO2. After 18 h, cells were treated with a titration of compound, 2 μM forskolin, or DMSO vehicle. Control wells were also treated with a titration of INSL3 (Phoenix Pharmaceuticals, Burlingame, CA) or human recombinant relaxin 2 (Peprotech, Cranbury, NJ). For the RXFP2 antagonist experiment, cells were co-treated with 0.28 μM compound or 30 nM INSL3 and a titration of the INSL3 B dimer antagonist[38],[39]. For the INSL3 allosteric modulation experiment, cells were co-treated with 0.025, 0.0025, or 0.00025 μM of compound and a titration of INSL3. Cells were incubated for 1 h at 37 °C, 5% CO2, and then kit cAMP-d2 and anti-cAMP antibody were added per manufacturer protocol. Plates were incubated for 1 h at room temperature and the signal was read on a CLARIOstar plate reader (BMG Labtech, Ortenberg, Germany) at 665 and 620 nm emission wavelengths. […]
receptors. HTRF cAMP counter-screen of RXFP2 agonists in HEK293T cells expressing a human RXFP1 and b mouse RXFP1. Relaxin 2 was used as positive control for RXFP1 receptor activation. Results are expressed as mean ± SEM of 3

human FSHR = biological target: T2, human FSHR (Homo sapiens, UniProt P23945); assay: HitHunter cAMP XS+ assay, cAMP Hunter cell line FSHR; assay type: cell-based; settings: for RLU: replicates (1),(2)
T2 sequence (P23945 18-695): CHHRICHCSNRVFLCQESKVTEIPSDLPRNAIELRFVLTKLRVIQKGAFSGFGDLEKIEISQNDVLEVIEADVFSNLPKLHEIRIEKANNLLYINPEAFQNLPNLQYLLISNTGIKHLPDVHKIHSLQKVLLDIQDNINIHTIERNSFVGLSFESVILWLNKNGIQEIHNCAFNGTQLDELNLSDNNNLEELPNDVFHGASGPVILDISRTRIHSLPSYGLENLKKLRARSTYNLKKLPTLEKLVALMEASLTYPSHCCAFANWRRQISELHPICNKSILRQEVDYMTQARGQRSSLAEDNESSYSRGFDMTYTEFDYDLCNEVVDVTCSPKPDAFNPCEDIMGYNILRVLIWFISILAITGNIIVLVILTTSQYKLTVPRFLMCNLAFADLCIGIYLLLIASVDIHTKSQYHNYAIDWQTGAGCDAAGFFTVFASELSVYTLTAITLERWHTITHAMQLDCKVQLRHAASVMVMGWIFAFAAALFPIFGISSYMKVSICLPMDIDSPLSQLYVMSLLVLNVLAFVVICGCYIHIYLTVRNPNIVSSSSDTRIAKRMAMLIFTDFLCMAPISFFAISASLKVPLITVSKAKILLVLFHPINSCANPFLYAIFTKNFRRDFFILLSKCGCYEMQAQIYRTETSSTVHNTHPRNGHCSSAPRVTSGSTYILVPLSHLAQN
Source text: Results are reported as raw RLU values and represent the
mean ± SEM of 2 technical replicates.

[1] = test system: trabecular bone of lumbar vertebrae; assay: Micro-CT of trabecular bone in L3 vertebral body after 8-week oral treatment; assay type: in vivo, mouse; settings: 10 mg/kg PO 3 times per week, 8 weeks, individual mice
trabecular bone of femur = assay: Micro-CT of trabecular bone in femur after 8-week oral treatment; assay type: in vivo, mouse; design: Mat.D / Tb.N / Tb.Th / Tb.Sp / Conn.D: unit not given here
[2] = femur trabecular bone, 8-week oral treatment, individual mice

With `O=C1Nc2ccc(-c3cc(C(F)(F)F)cc(C(F)(F)F)c3)cc2C(=O)N2CCN(C(=O)COc3ccc(OC(F)(F)F)cc3I)C[C@@H]12` [compound 6641] the “activation of mouse RXFP1 receptor” value (mouse RXFP1; HTRF cAMP) was “do not activate”, the “% Eff (cAMP)” value (mouse RXFP1; Log [M] -4.60) was -2.207% and -2.077% and -4.472% and the “% Eff (cAMP)” value (mouse RXFP1; Log [M] -5.60) was -1.251% and -0.3652% and -2.403%. For the same compound, the “% Eff (cAMP)” value (mouse RXFP1; Log [M] -6.60) was -1.454% and 0.6194% and -2.041%, the “% Eff (cAMP)” value (mouse RXFP1; Log [M] -7.60) was -0.3802% and -0.7758% and -2.5668% and the “cAMP response through FSHR” value (human FSHR; Hit Hunter cAMP assay) was “did not result in an increase of cAMP level”. The RLU (human FSHR; Log [M] -4.70) was 1000 RLU and 1200 RLU, the RLU (human FSHR; Log [M] -5.18) was 1080 RLU and the RLU (human FSHR; Log [M] -5.65) was 960 RLU and 1040 RLU. For the same compound, the RLU (human FSHR; Log [M] -6.13) was 880 RLU and 920 RLU, the RLU (human FSHR; Log [M] -6.61) was 840 RLU and 960 RLU and the RLU (human FSHR; Log [M] -7.08) was 960 RLU and 1040 RLU. For the same compound, the RLU (human FSHR; Log [M] -7.56) was 1280 RLU and 720 RLU, the RLU (human FSHR; Log [M] -8.04) was 880 RLU and 960 RLU and the RLU (human FSHR; Log [M] -8.52) was 1040 RLU and 1080 RLU. For the same compound, the RLU (human FSHR; Log [M] -8.99) was 720 RLU and 880 RLU, the “BV/TV (%)” value [1] was “trend toward increased and 21.83% and 22.07% and 25.65% and 21.31% and 23.44% and 26.86% and 22.32% and 23.17% and 21.16% and 25.39% and 23.83% and 22.19% and 23.69% and 23.39% and 21.11%” and the Conn.D [1] was “No changes and 105.367 1/mm^3 and 104.207 1/mm^3 and 139.801 1/mm^3 and 114.117 1/mm^3 and 100.266 1/mm^3 and 110.113 1/mm^3 and 116.566 1/mm^3 and 102.739 1/mm^3 and 105.531 1/mm^3 and 114.364 1/mm^3 and 111.763 1/mm^3 and 100.184 1/mm^3 and 109.218 1/mm^3 and 125.466 1/mm^3 and 120.228 1/mm^3”. The Mat.D [1] was “No changes and 789.633 VOI-mg HA/ccm and 806.041 VOI-mg HA/ccm and 814.578 VOI-mg HA/ccm and 814.711 VOI-mg HA/ccm and 826.05 VOI-mg HA/ccm and 764.488 VOI-mg HA/ccm and 771.958 VOI-mg HA/ccm and 779.095 VOI-mg HA/ccm and 769.29 VOI-mg HA/ccm and 795.903 VOI-mg HA/ccm and 795.302 VOI-mg HA/ccm and 809.309 VOI-mg HA/ccm and 793.168 VOI-mg HA/ccm and 804.707 VOI-mg HA/ccm and 800.171 VOI-mg HA/ccm”, the Tb.N [1] was “significant increase and 4.0038 mm-1 and 4.0307 mm-1 and 4.3607 mm-1 and 4.399 mm-1 and 4.0225 mm-1 and 4.1566 mm-1 and 4.1337 mm-1 and 4.2031 mm-1 and 4.3359 mm-1 and 3.9986 mm-1 and 4.1625 mm-1 and 3.9653 mm-1 and 4.2022 mm-1 and 4.1463 mm-1 and 4.168 mm-1” and the Tb.Sp [1] was “decreased and 0.2416 mm and 0.2439 mm and 0.2173 mm and 0.2168 mm and 0.234 mm and 0.2335 mm and 0.2409 mm and 0.2383 mm and 0.2244 mm and 0.2446 mm and 0.2447 mm and 0.2276 mm and 0.235 mm and 0.2349 mm”. For the same compound, the Tb.Th [1] was “significant increase and 0.0544 mm and 0.0558 mm and 0.0561 mm and 0.0524 mm and 0.0567 mm and 0.0611 mm and 0.0571 mm and 0.0582 mm and 0.0525 mm and 0.0589 mm and 0.057 mm and 0.056 mm and 0.0578 mm and 0.0547 mm and 0.0543 mm”, the “femur trabecular parameters (micro-CT)” value (trabecular bone of femur; 10 mg/kg PO 3 times per week, 8 weeks) was “no changes” and the “BV/TV (%)” value (trabecular bone of femur; [2]) was 4.31% and 3.06% and 3.16% and 4.83% and 2.23% and 3.75% and 3.15% and 4.04% and 1.79% and 1.82% and 3.85% and 4.53% and 2.18% and 3.86% and 3.36%. The Conn.D (trabecular bone of femur; [2]) was 30.1255 and 5.8494 and 15.74 and 19.1725 and 7.6938 and 27.3442 and 18.8338 and 25.1693 and 0 and -0.6363 and 15.6001 and 25.2137 and 3.3792 and 27.5856 and 14.5139, the Mat.D (trabecular bone of femur; [2]) was 834.454 and 848.06 and 875.94 and 870.004 and 796.836 and 823.449 and 732.807 and 765.822 and 734.474 and 726.404 and 778.428 and 781.83 and 731.073 and 806.374 and 872.538 and the Tb.N (trabecular bone of femur; [2]) was 3.0955 and 3.1972 and 2.9789 and 2.9022 and 2.8329 and 3.2718 and 2.9757 and 3.3227 and 2.8446 and 3.0319 and 3.0922 and 3.1695 and 2.9848 and 3.092 and 2.9537. The Tb.Sp (trabecular bone of femur; [2]) was 0.3236 and 0.3094 and 0.3391 and 0.3456 and 0.3545 and 0.3064 and 0.3348 and 0.3029 and 0.3454 and 0.3314 and 0.3266 and 0.317 and 0.3334 and 0.3226 and 0.3354 and the Tb.Th (trabecular bone of femur; [2]) was 0.0422 and 0.0404 and 0.0416 and 0.0484 and 0.033 and 0.037 and 0.035 and 0.0363 and 0.0299 and 0.0308 and 0.0384 and 0.0447 and 0.0326 and 0.0382 and 0.0437.
